Laboratory results published in BindingDB's records for PubMed 38373290 (University of the Republic (UdelaR)).

Target: Metallo-beta-lactamase type 2 (Klebsiella pneumoniae, UniProt C7C422)
Experiment: Inhibition of his6-tagged NDM-1 (unknown origin) expressed in Escherichia coli BL21-DE3 incubated for 16 hrs

Metallo-beta-lactamase type 2, sequence (C7C422 whole entry): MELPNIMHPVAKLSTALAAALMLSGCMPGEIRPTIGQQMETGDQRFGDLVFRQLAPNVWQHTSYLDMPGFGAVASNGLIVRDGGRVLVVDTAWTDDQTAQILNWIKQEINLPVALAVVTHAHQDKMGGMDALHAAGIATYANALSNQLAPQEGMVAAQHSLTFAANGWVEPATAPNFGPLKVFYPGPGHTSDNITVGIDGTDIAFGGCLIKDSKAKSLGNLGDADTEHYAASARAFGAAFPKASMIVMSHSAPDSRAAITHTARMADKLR

## SC[C@H]1SC[C@@H]2Nc3ccccc3N21
  IC50: 770 nM
